Values quoted from earlier work in patent US6043217A, “Amide derivative of amythiamicin” (Zaidan Hojin Biseibutsu Kagaku Kenyu Kai, priority 1996, dated 2000).

Settings: background statement on known amythiamicins; cited from earlier work

Compound	solubility in water
CNC(=O)CC1NC(=O)c2csc(n2)-c2ccc(-c3nc(C(=O)OCC4NC(=O)C5CCCN5C4=O)cs3)nc2-c2csc(n2)-c2csc(n2)C(C(C)C)NC(=O)CNC(=O)c2csc(n2)C(C(C)C)NC(=O)c2nc1sc2C (centres unmarked) [Amythiamicin C, amythiamicin C]	hardly soluble in water
CNC(=O)CC1NC(=O)c2csc(n2)-c2ccc(-c3nc(C4=NC(C(=O)N5CCCC5C(N)=O)CO4)cs3)nc2-c2csc(n2)-c2csc(n2)C(C(C)C)NC(=O)CNC(=O)c2csc(n2)C(C(C)C)NC(=O)c2nc1sc2C (centres unmarked) [Amythiamicin A]	hardly soluble in water
